Laboratory results from patent publication US10214519B2, “Phosphatidylinositol 3-kinase inhibitors” (Gilead Sciences, Inc., priority 2016, dated 2019).

biological target: PI3Kβ (Homo sapiens (Human), UniProt P42338); assay: PI3K isoform TR-FRET enzymatic assay (PI3Kβ); assay type: biochemical; conditions: 2× Km ATP, 30 minutes at 25° C.
In short: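 Heterodimeric recombinant PI3Kβ was incubated with compound 30 minutes at 25° C. Product was detected by TR-FRET competition with 10 nM labeled PIP3 for 35 nM Eu-GRP-1 PH domain after EDTA stop. Data were normalized to 1 μM wortmannin and DMSO, and IC50 was taken from a four-parameter fit.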

Chain of PI3Kβ (P42338 whole entry, the tested form may be a part, canonical isoform): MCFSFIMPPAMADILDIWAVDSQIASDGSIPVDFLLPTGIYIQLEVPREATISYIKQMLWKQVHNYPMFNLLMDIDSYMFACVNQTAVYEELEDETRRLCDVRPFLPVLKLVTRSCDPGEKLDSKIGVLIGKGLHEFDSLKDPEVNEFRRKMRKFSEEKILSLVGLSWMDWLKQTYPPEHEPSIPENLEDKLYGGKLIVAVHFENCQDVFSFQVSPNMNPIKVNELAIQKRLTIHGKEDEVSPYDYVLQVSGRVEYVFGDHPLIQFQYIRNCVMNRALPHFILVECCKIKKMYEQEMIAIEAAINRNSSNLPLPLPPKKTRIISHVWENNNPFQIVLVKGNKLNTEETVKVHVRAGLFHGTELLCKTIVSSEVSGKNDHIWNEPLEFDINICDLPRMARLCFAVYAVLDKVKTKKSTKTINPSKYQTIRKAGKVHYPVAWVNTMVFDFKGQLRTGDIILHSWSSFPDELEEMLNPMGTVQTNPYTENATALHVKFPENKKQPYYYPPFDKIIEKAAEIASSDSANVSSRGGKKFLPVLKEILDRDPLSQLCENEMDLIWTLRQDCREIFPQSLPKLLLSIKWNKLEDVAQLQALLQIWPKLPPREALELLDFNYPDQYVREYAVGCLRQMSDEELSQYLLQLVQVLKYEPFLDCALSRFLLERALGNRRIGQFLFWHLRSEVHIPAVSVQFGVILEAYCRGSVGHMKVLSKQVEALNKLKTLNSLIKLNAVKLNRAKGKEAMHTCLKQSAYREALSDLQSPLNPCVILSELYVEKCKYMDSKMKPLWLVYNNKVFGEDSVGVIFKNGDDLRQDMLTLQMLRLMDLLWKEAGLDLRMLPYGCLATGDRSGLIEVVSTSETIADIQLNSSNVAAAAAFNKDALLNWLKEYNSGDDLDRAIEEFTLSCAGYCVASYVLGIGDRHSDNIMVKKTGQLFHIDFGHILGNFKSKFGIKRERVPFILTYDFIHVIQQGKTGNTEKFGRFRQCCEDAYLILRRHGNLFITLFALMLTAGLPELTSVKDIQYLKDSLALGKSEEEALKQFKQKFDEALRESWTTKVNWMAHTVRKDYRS
Chain of PI3Kβ (P27986 whole entry partner, the tested form may be a part, canonical isoform): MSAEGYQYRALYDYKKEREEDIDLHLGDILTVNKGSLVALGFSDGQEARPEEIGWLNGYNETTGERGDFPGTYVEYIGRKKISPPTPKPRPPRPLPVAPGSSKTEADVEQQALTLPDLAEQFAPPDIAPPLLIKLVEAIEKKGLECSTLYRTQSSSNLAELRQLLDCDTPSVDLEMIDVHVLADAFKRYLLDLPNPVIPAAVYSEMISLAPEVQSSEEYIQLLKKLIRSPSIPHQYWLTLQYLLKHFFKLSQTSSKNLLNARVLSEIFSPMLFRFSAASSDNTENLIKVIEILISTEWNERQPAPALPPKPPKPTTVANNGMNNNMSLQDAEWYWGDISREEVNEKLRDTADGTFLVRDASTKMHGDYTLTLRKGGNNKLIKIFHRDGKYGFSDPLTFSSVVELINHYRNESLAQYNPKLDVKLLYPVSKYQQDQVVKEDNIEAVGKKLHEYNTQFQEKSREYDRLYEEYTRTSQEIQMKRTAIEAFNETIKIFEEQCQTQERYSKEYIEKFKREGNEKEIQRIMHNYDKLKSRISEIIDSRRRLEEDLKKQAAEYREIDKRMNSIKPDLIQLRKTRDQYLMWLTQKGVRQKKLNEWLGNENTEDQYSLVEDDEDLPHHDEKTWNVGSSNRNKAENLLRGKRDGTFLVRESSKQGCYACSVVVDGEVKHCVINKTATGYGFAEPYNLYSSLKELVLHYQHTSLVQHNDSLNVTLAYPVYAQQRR

IC50 | Structure (SMILES)
2800 nM | Cc1nc2c(-c3nnc[nH]3)cc(N3CCOCC3)cc2n1-c1ccnc2c(Cl)cccc12 (atropisomer, axis not shown) [Compound 360, 4-[3-(8-chloroquinolin-4-yl)-2-methyl-7-(4H-1,2,4-triazol-3-yl)benzimidazol-5-yl]morpholine]
140 nM | Cc1nc2c(-c3nnc(C(C)C)[nH]3)cc(N3CCOCC3)cc2n1-c1ccnc2c(Cl)cccc12 [Example 138, 4-[3-(8-chloroquinolin-4-yl)-2-methyl-7-(5-propan-2-yl-4H-1,2,4-triazol-3-yl)benzimidazol-5-yl]morpholine]
40 nM | CCc1nc2c(-c3cnc(C)[nH]3)cc(N3CCOCC3)cc2n1-c1ccnc2c(F)ccc(F)c12 [Example 206, 4-[3-(5,8-difluoroquinolin-4-yl)-2-ethyl-7-(2-methyl-1H-imidazol-5-yl)benzimidazol-5-yl]morpholine]
24 nM | Clc1cccc2c(-n3c(-c4cncs4)nc4c(-c5nnc[nH]5)cc(N5CCOCC5)cc43)ccnc12 [Example 119, 4-[3-(8-chloroquinolin-4-yl)-2-(1,3-thiazol-5-yl)-7-(4H-1,2,4-triazol-3-yl)benzimidazol-5-yl]morpholine]
23 nM | Cc1cccc2nccc(-n3cnc4c(-c5nnc[nH]5)cc(N5CCOCC5)cc43)c12 [Example 127, 4-[3-(5-methylquinolin-4-yl)-7-(4H-1,2,4-triazol-3-yl)benzimidazol-5-yl]morpholine]
4 nM | FC(F)c1cc(-n2cnc3c(-c4nnc[nH]4)cc(N4CCOCC4)cc32)c2cccc(Cl)c2n1 [Example 88, 4-[3-[8-chloro-2-(difluoromethyl)quinolin-4-yl]-7-(4H-1,2,4-triazol-3-yl)benzimidazol-5-yl]morpholine]
23 nM | CCc1c(C)nc2ccccc2c1-n1c(C)nc2c(-c3nnc[nH]3)cc(N3CCOCC3)cc21 [Example 62, 4-[3-(3-ethyl-2-methylquinolin-4-yl)-2-methyl-7-(4H-1,2,4-triazol-3-yl)benzimidazol-5-yl]morpholine]
20 nM | CCCc1nc2c(-c3nnc(C)[nH]3)cc(N3CCOCC3)cc2n1-c1ccnc2c(C)ccc(F)c12 [Example 43, 4-(1-(5-fluoro-8-methylquinolin-4-yl)-4-(5-methyl-4H-1,2,4-triazol-3-yl)-2-propyl-1H-benzo[d]imidazol-6-yl)morpholine]
14 nM | Fc1ccc(F)c2c(-n3c(C4CC4)nc4c(-c5cnc(Cl)[nH]5)cc(N5CCOCC5)cc43)ccnc12 [Example 286, 4-[7-(2-chloro-1H-imidazol-5-yl)-2-cyclopropyl-3-(5,8-difluoroquinolin-4-yl)benzimidazol-5-yl]morpholine]
36 nM | CCc1nc2c(-c3cnc(Cl)[nH]3)cc(N3CCOCC3)cc2n1-c1ccnc2c(F)ccc(Cl)c12 [Example 310, 4-[3-(5-chloro-8-fluoroquinolin-4-yl)-7-(2-chloro-1H-imidazol-5-yl)-2-ethylbenzimidazol-5-yl]morpholine]
12 nM | Cc1nc2c(-c3nnc[nH]3)cc(N3CCOCC3)cc2n1-c1cc(-c2cn[nH]c2)nc2ccccc12 [Example 167, 4-(1-(2-(1H-pyrazol-4-yl)quinolin-4-yl)-2-methyl-4-(4H-1,2,4-triazol-3-yl)-1H-benzo[d]imidazol-6-yl)morpholine 2,2,2-trifluoroacetate]
72 nM | Cc1c(C2CC2)nc2ccccc2c1-n1c(C)nc2c(-c3nnc[nH]3)cc(N3CCOCC3)cc21 [Example 56, 4-[3-(2-cyclopropyl-3-methylquinolin-4-yl)-2-methyl-7-(4H-1,2,4-triazol-3-yl)benzimidazol-5-yl]morpholine]
5 nM | Fc1ccc(F)c2c(-n3cnc4c(-c5cnc[nH]5)cc(N5CCOCC5)cc43)ccnc12 [Example 336, 4-[3-(5,8-difluoroquinolin-4-yl)-7-(1H-imidazol-5-yl)benzimidazol-5-yl]morpholine]
17 nM | Clc1cccc2c(-n3c(C4COC4)nc4c(-c5nnc[nH]5)cc(N5CCOCC5)cc43)ccnc12 [Example 113, 4-[3-(8-chloroquinolin-4-yl)-2-(oxetan-3-yl)-7-(4H-1,2,4-triazol-3-yl)benzimidazol-5-yl]morpholine]
10 nM | Cc1nc2c(-c3cnc(Cl)[nH]3)cc(N3CCOCC3)cc2n1-c1ccnc2c(F)ccc(F)c12 [Example 298, 4-[7-(2-chloro-1H-imidazol-5-yl)-3-(5,8-difluoroquinolin-4-yl)-2-methylbenzimidazol-5-yl]morpholin]
6 nM | Cc1nc2c(-c3cnc(Cl)[nH]3)cc(N3CCOCC3)cc2n1-c1ccnc2c(Cl)c(F)ccc12 [Example 294, 4-[3-(8-chloro-7-fluoroquinolin-4-yl)-7-(2-chloro-1H-imidazol-5-yl)-2-methylbenzimidazol-5-yl]morpholine]

IC50 | Structure (SMILES)
480 nM | Cc1nc2c(-c3n[nH]c(=O)o3)cc(N3CCOCC3)cc2n1-c1ccnc2cc(F)ccc12 [Example 166, 5-(1-(7-fluoroquinolin-4-yl)-2-methyl-6-morpholino-1H-benzo[d]imidazol-4-yl)-1,3,4-oxadiazol-2(3H)-one]
> 10000 nM | Cc1nc2c(-c3cccc(C(N)=O)c3)cc(N3CCOCC3)cc2n1-c1ccnc2c(-c3cccc(C(N)=O)c3)cccc12 [Example 322, 3-[4-[4-(3-carbamoylphenyl)-2-methyl-6-morpholin-4-ylbenzimidazol-1-yl]quinolin-8-yl]benzamide]
59 nM | CCc1nc2c(-c3nnc(C)[nH]3)cc(N3CCOCC3)cc2n1-c1ccnc2c(F)ccc(F)c12 [Example 152, 4-(1-(5,8-difluoroquinolin-4-yl)-2-ethyl-4-(5-methyl-4H-1,2,4-triazol-3-yl)-1H-benzo[d]imidazol-6-yl)morpholine]
280 nM | Cc1nnc(-c2cc(N3CCOCC3)cc3c2ncn3-c2ccnc3cc(F)ccc23)[nH]1 [Example 22, 4-(1-(7-fluoroquinolin-4-yl)-4-(5-methyl-4H-1,2,4-triazol-3-yl)-1H-benzo[d]imidazol-6-yl)morpholine]
48 nM | Cc1nc2c(-c3nnc(C(F)(F)F)[nH]3)cc(N3CCOCC3)cc2n1-c1ccnc2c(Cl)cccc12 [Example 136, 4-[3-(8-chloroquinolin-4-yl)-2-methyl-7-[5-(trifluoromethyl)-4H-1,2,4-triazol-3-yl]benzimidazol-5-yl]morpholine]
31 nM | CCCc1nc2c(-c3nnc[nH]3)cc(N3CCOCC3)cc2n1-c1ccnc2cc(F)ccc12 [Example 7, 4-(1-(7-fluoroquinolin-4-yl)-2-propyl-4-(4H-1,2,4-triazol-3-yl)-1H-benzo[d]imidazol-6-yl)morpholine]
21 nM | COCCc1nc2c(-c3nnc[nH]3)cc(N3CCOCC3)cc2n1-c1ccnc2c(Cl)cccc12 [Example 116, 4-[3-(8-chloroquinolin-4-yl)-2-(2-methoxyethyl)-7-(4H-1,2,4-triazol-3-yl)benzimidazol-5-yl]morpholine]
52 nM | Clc1cccc2c(-n3c(-c4cnsc4)nc4c(-c5nnc[nH]5)cc(N5CCOCC5)cc43)ccnc12 [Example 118, 4-[3-(8-chloroquinolin-4-yl)-2-(1,2-thiazol-4-yl)-7-(4H-1,2,4-triazol-3-yl)benzimidazol-5-yl]morpholine]
9 nM | Cc1cc(-n2c(C)nc3c(-c4cnc[nH]4)cc(N4CCOCC4)cc32)c2c(Cl)ccc(Cl)c2n1 [Example 333, 4-[3-(5,8-dichloro-2-methylquinolin-4-yl)-7-(1H-imidazol-5-yl)-2-methylbenzimidazol-5-yl]morpholine]
61 nM | CCc1nc2c(F)cccc2c(-n2c(C)nc3c(-c4nc(C)n[nH]4)cc(N4CCOCC4)cc32)c1C [Example 80, 4-[3-(2-ethyl-8-fluoro-3-methylquinolin-4-yl)-2-methyl-7-(3-methyl-1H-1,2,4-triazol-5-yl)benzimidazol-5-yl]morpholine]
27 nM | Clc1cccc2c(-n3c(C4CC4)nc4c(-c5cnn[nH]5)cc(N5CCOCC5)cc43)ccnc12 [Example 378, 4-(1-(8-chloroquinolin-4-yl)-2-cyclopropyl-4-(1H-1,2,3-triazol-5-yl)-1H-benzo[d]imidazol-6-yl)morpholine]
2 nM | Clc1cccc2c(-n3cnc4c(-c5c[nH]cn5)cc(N5CCOCC5)cc43)ccnc12 [Example 332, 4-(1-(8-chloroquinolin-4-yl)-4-(1H-imidazol-4-yl)-1H-benzo[d]imidazol-6-yl)morpholine]
46 nM | Cc1nnc(-c2cc(N3CCOCC3)cc3c2nc(C)n3-c2ccnc3c(C(F)F)cccc23)[nH]1 [Example 92, 4-[3-[8-(difluoromethyl)quinolin-4-yl]-2-methyl-7-(5-methyl-4H-1,2,4-triazol-3-yl)benzimidazol-5-yl]morpholine]
9 nM | Cc1nc2c(-c3nnc[nH]3)cc(N3CCOCC3)cc2n1-c1ccnc2c(C(F)F)cccc12 [Example 82, 4-[3-[8-(difluoromethyl)quinolin-4-yl]-2-methyl-7-(4H-1,2,4-triazol-3-yl)benzimidazol-5-yl]morpholine]
28 nM | Cc1cccc2nccc(-n3c(C)nc4c(-c5nnc[nH]5)cc(N5CCOCC5)cc43)c12 (atropisomer, axis not shown) [Compound 362, 4-[2-methyl-3-(5-methylquinolin-4-yl)-7-(4H-1,2,4-triazol-3-yl)benzimidazol-5-yl]morpholine]
14 nM | FC1(c2nc3c(-c4nnc[nH]4)cc(N4CCOCC4)cc3n2-c2ccnc3c(Cl)cccc23)CC1 [Example 54, 4-(1-(8-chloroquinolin-4-yl)-2-(1-fluorocyclopropyl)-4-(4H-1,2,4-triazol-3-yl)-1H-benzo[d]imidazol-6-yl)morpholine]

Structure (SMILES) | IC50
Cc1nnc(-c2cc(N3CCOCC3)cc3c2nc(C)n3-c2ccnc3c(F)ccc(F)c23)[nH]1 (atropisomer, axis not shown) [Compound 351, (R)-4-(1-(5,8-difluoroquinolin-4-yl)-2-methyl-4-(5-methyl-4H-1,2,4-triazol-3-yl)-1H-benzo[d]imidazol-6-yl)morpholine] | 460 nM
